Key:
terminal ileum [1] = experiment: PAT: ileal gene expression profiling by whole genome microarray, 6-week mice; format: in vivo, C57BL/6 mice; conditions: 6-week PAT vs Control, T-test p<0.05 and fold change ≧1.2 or ≦0.8
Method: Ileal gene expression profiling of STAT, PAT, and control animal groups, was performed using the Affymetrix Genechip system (Affymetrix). Total RNA quality and quantity were determined using the Agilent 2100 Bioanalyser and Nanodrop ND-1000. Total RNA (100 ng) was used to prepare cDNA following the Affymetrix […] Express Kit labelling protocol (Affymetrix). Standardized array processing procedures recommended by Affymetrix were performed, including hybridization, fluidics processing and scanning of the Affymetrix MG-430 2.0 arrays. GeneSpring GX11 software (Agilent Technologies) was used to normalize the raw data (Affymetrix CEL files) by Robust Multichip Average algorithm (RMA).
1127 and 3065 reproducibly regulated genes were identified from ˜45,000 genes of the mouse genome by T-test (p<0.05) and fold change (≧1.2 or ≦0.8) in 6-week PAT (Panel A; Control vs Amoxicillin and Panel B; Control vs Tylosin), respectively (FIG. 22). DAVID analysis was performed using the regulated genes, and Gene Set Enrichment analysis (GSEA) was performed using whole gene data.
(C, n=3), amoxicillin (A, n=3), and tylosin treated mice (T, n=3).

terminal ileum [2] = experiment: PAT: ileal expression by qPCR in 6-week mice; format: in vivo, C57BL/6 mice; conditions: 6-week male mice, 3 pulses, vs control, p<0.05
Method: Total RNA was extracted from mouse tissues using the RNeasy Mini Kit (Qiagen), according to the manufacturer's instructions. Total RNA was reverse transcribed to cDNA using the Verso™ cDNA Synthesis Kit (Thermo Scientific). To generate standards for expression analysis of each target gene, the cDNA region of interest was PCR-amplified and the PCR product was cloned into pGEM-T easy (Promega). qPCR was performed with LightCycler 480 SYBR Green I Master mix (Roche) and run in a LightCycler 480 system (Roche). Target mRNA was normalized to GAPDH mRNA as an internal control in each sample.
C57BL/6 mice were fed a standard diet after weaning, and exposed to 3 pulses of therapeutic dose antibiotics (Amoxicillin or Tylosin), or no antibiotics, via their drinking water, all before 6 weeks of age. Mice were sacrificed at 6 weeks of age.
The distal ileum (1 cm) without Peyer's Patches was collected from each mouse for RNA extraction and kept in RNAlater (Ambion) overnight at 4° C. Samples were stored at −80° C. until RNA extraction was performed.
Panel A: Mice were exposed to 3 pulses of antibiotics (Amoxicillin or Tylosin), or no antibiotics, via breast milk or drinking water at the indicated time points. Panel B: Male mice, including 5 Control, 4 Amoxicillin, and 6 Tylosin, were fed a normal diet. They were sacrificed at 6 weeks of age and the terminal[1 cm] ileum without Peyer's Patches [TI-] was collected.
Ileal expression of T-bet and IFN-γ [Th1], GATA3 and IL-4 [Th2], Foxp3, and TGFβ1 [Treg], and RORγt, IL-17A, and IL-17F [Th17] (Control n=5, Amoxicillin n=4, Tylosin n=6) was quantitated with qPCR and normalized by GAPDH expression. Expression of T-bet and IFNγ [Th1] (p<0.05) and IL-17A and IL-17F [Th17] […] Foxp3 and RORγt were lower in Tylosin than control. This example extends the earlier observation that continuous antibiotics affect ileal immune cell populations and effectors by showing that pulses are sufficient to produce similar effects.

[3] = asthma; cited from earlier work

SMILES | reproducibly regulated genes out of ~45,000 genes of the mouse genome (terminal ileum [1]) | ileal expression of IFNγ [Th1] (terminal ileum [2]) | ileal expression of IL-17A [Th17] (terminal ileum [2]) | ileal expression of IL-17F [Th17] (terminal ileum [2]) | ileal expression of T-bet [Th1] (terminal ileum [2]) | airway hyperresponsives (AHR) [3] | neutrophilic inflammation [3]
CC1(C)S[C@@H]2[C@H](NC(=O)[C@H](N)c3ccc(O)cc3)C(=O)N2[C@H]1C(=O)O [Amoxicillin] | 1127 | significantly lower | significantly lower | significantly lower | significantly lower |  | 
CC[C@H]1OC(=O)[C@H](C)[C@@H](O[C@H]2C[C@@](C)(OC)[C@@H](O)[C@H](C)O2)[C@H](C)[C@@H](O[C@@H]2O[C@H](C)C[C@H](N(C)C)[C@H]2O)[C@](C)(OC)C[C@@H](C)C(=O)[C@H](C)[C@@H](O)[C@]1(C)O [clarithromycin] |  |  |  |  |  | reduced | reduced

Source: patent US20160120915A1, “METHODS FOR MANIPULATING IMMUNE RESPONSES BY ALTERING MICROBIOTA” (NEW YORK UNIVERSITY, priority 2013, published 2016)
